From patent US7504522B2, “Azetidinecarboxamide derivatives and their use in the treatment of cb1 receptor mediated disorders” (Vernalis Research Limited, priority 2003, dated 2009)

Key:
[1] = tested on: male food-deprived Lister-hooded rats; assay: Regulation of feeding behaviour (food consumption); assay type: in vivo; conditions: p.o.; acute administration; food consumption after 18-hour food withdrawal
Protocol: The in vivo activity of compounds of formula (I) was assayed for ability to regulate feeding behaviour by measuring food consumption in male food-deprived Lister-hooded rats as follows.
Test compounds are assessed following acute administration.
The anorectic drug sibutramine, or the reference CB1 receptor antagonist, SR141716A, normally serves as a positive control. The route of drug administration, drug volume and injection-test-interval are dependent upon the compounds used. The injection-test-interval is the time between dosing and food re-presentation. Typically, animals are fasted such that at the time of food re-presentation food has been withdrawn for an 18-hour period. Food consumption is assayed at pre-determined time points (typically 1, 2 and 4 hours after administration). Food intake data are subjected to one-way analysis of variance (ANOVA) with drug as a between-subjects factor. […] All statistical analyses were performed using Statistica Software, Version 6.0 (Statsoft Inc.) and Microsoft Excel 7.0 (Microsoft Corp.).

[2] = tested on: male C57B1/6 mice; assay: Blockade of Δ^9-THC induced hypolocomotion in mice; assay type: in vivo; conditions: p.o.; antagonism of reduction in locomotor behaviour induced by 3 mg/kg i.p. Δ^9-THC
Protocol: The in vivo activity of compounds of formula (I) was assayed for ability to antagonise the reduction in locomotor behaviour induced by acute systemic administration of Δ^9-THC in male C57B1/6 mice. The procedure was as follows.
Test compounds are assessed following acute oral or intraperitoneal administration at a dose of 30 mg/kg.
The route of test compound administration, drug volume and injection-test-interval are dependent upon the compounds used. 10 min before testing, a 3 mg/kg dose Δ^9-THC (or vehicle) is administered to mice by the i.p. route. […] The light beams are arranged on a 7 by 4 matrix on a metal grid. 16 grids are connected in series and Perspex boxes, 20 (width)×40 (length)×20 (height) cm, with a flat perforated, Perspex lid are placed in each grid. Mice are placed singly in Perspex boxes and the recording of activity in all 16 boxes starts simultaneously. The mice are left undisturbed to explore the novel activity monitor boxes for 15 minutes while beam breaks are recorded.
Locomotor activity data are subjected to one-way analysis of variance (ANOVA) with drug treatment as a between-subjects factor. […] Significant differences between the vehicle/Δ^9-THC group and Test compound/Δ^9-THC groups are assessed by Newman-Keuls test. All statistical analyses were performed using Statistica Software, Version 6.0 (Statsoft Inc.) and Microsoft Excel 7.0 (Microsoft Corp.).

[3] = target: T1, recombinant human CB1 receptors (Homo sapiens, UniProt P21554); assay: Binding to CB1 receptors; conditions: [^3H]-SR-141716A 1 nM; membranes from HEK293 cells expressing recombinant hCB1; Ki calculated from IC50 by Cheng-Prusoff
T1 construct: expressed in transfected cells; host or cells: HEK293 cells (membranes)
Protocol: The binding of compounds of Formula I to recombinant human CB1 receptors was determined in vitro by standard methods, with reference to the procedure described by Rinaldi-Carmona et al. (Rinaldi-Camona, M., Pialot, F., Congy, C., Redon, E., Barth, F., Bachy, A., Breliere, J. C., Soubre, P., LeFur, G., Life Sci. 1996, 58(15), 1239-1247). Membranes were prepared from HEK293 cells expressing recombinant hCB1 receptors. Binding assays are performed in a total volume of 250 μL, containing [^3H]—SR-141716A (1 nM final concentration), membranes and test compound. Non-specific binding is determined using CP55,940 (10 μM). Serial dilutions are performed starting from test compounds as 10 mM solutions in DMSO. Compounds are tested over the concentration range 10^−10 M to 10^−5 M. Ki values are calculated from IC50 values using the Cheng-Prusoff equation.

T1 sequence (P21554 whole entry): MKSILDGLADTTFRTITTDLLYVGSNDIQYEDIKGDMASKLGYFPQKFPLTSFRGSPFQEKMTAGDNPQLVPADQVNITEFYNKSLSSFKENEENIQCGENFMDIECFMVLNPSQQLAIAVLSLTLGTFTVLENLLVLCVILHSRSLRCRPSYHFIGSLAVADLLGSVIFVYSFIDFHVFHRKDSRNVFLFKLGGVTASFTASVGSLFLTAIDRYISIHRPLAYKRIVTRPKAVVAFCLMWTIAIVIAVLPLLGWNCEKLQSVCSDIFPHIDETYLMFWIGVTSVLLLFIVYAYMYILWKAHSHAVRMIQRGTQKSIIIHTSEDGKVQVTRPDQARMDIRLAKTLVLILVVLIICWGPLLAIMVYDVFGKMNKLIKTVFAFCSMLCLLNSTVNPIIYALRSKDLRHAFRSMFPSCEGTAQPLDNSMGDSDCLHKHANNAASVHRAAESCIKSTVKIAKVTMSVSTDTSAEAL

Structure (SMILES) | M.E.D (mg/kg), route [1] | Active dose (mg/kg), route [2] | Ki [3] [nM]
CC(C)(C)NC(=O)N1CC(OC(c2ccc(Br)cc2F)c2ccccc2C(F)(F)F)C1 (centres unmarked) [Example 94, 3-[2-(trifluoromethyl)-2′-fluoro-4′-bromobenzhydryloxy]-N-(tert-butyl)azetidine-1-carboxamide] | 10, p.o. mg/kg | 30, p.o. mg/kg | 1.3
CC(C)(C)NC(=O)N1CC(OC(c2ccc(S(C)(=O)=O)cc2)c2ccccc2C(F)(F)F)C1 (single isomer, unassigned) [Example 140, 3-[(S*)-2-(trifluoromethyl)-4′-(methylsulphonyl)benzhydryloxy]-N-(tert-butyl)azetidine-1-carboxamide] |  |  | 27
CC(C)(C)NC(=O)N1CC(OC(c2ccc(Cl)cc2)c2ccccc2Cl)C1 (centres unmarked) [Example 4, 3-(2,4′-dichlorobenzhydryloxy)-N-(tert-butyl)azetidine-1-carboxamide] | 30, p.o. mg/kg | 30, p.o. mg/kg | 4.5
CC(C)(C)NC(=O)N1CC(OC(c2ccc(Cl)cc2)c2ccccc2C(F)(F)F)C1 (racemic) [Example 81, 3-[2-(trifluoromethyl)-4′-chlorobenzhydryloxy]-N-(tert-butyl)azetidine-1-carboxamide] | 3, p.o. mg/kg | 30, p.o. mg/kg | 2.3
CC(C)(C)NC(=O)N1CC(OC(c2ccc(Cl)cc2)c2ccc(Cl)cc2Cl)C1 (centres unmarked) [Example 1, 3-(2,4,4′-trichlorobenzhydryloxy)-N-(tert-butyl)azetidine-1-carboxamide] | 30, p.o. mg/kg | 30, p.o. mg/kg | 4.7
O=C(NC12CC3CC(CC(C3)C1)C2)N1CC(OC(c2ccc(Cl)cc2)c2ccc(Cl)cc2)C1 [Example 30, 3-(4,4′-dichlorobenzhydryloxy)-N-(1-adamantyl)azetidine-1-carboxamide] |  |  | 19
CC(C)(C)NC(=O)N1CC(OC(c2ccc(Cl)cc2)c2ccc(Cl)cc2)C1 [Example 28, 3-(4,4′-dichlorobenzhydryloxy)-N-(tert-butyl)azetidine-1-carboxamide] |  |  | 80
CC(C)(C)NC(=O)N1CC(OC(c2ccc(Cl)cc2)c2ccccc2C(F)(F)F)C1 (single isomer, unassigned) [Example 139, 3-[(R*)-2-(trifluoromethyl)-4′-chlorobenzhydryloxy]-N-(tert-butyl)-azetidine-1-carboxamide] | 1, p.o. mg/kg |  | 0.6
